# Test results: US20190029989A1, “BOWEL CARE USING IONTOPHORESIS” (priority 2016, published 2019)
# Legend:
# Type in all cases: in vivo, human
# [1] = test system: Persons with SCI; assay: Heart rate and blood pressure monitoring after IV bolus (Example 3); conditions: IV bolus 2 mg neostigmine alone or with 0.4 mg glycopyrrolate
# Description: (§1) Thirteen (13) persons with SCI (5 quadriplegics, 8 paraplegics) with a mean age of 46 years (range 25-69) and mean duration of injury of 16 years (range 1-31) were treated. None of the subjects had known heart disease and/or history of arrhythmias.
# (§2) On separate days, subjects were given by IV bolus either (i) 2 mg neostigmine alone, (ii) a combination of 2 mg neostigmine and 0.4 mg glycopyrrolate, or (iii) normal saline. Subjects were blinded to the type of infusion being delivered. The effect of these infusions on bowel evacuation was assessed semi-quantitatively on a scale of 0 (no evacuation) to 4+(complete evacuation) using video fluoroscopy after rectal instillation of a barium-oatmeal paste having a consistency similar to that of stool. Blood pressure, heart rate and other vital signs were monitored in each subject. In addition, airway resistances were determined in each subject using the forced oscillation technique (as described, for example, in Goldman, Pulm. Pharmacol. Ther., 14(5):341-350, 2001). Total airway resistance was determined using 5 Hz forced oscillations, and central airway resistance was determined using 20 Hz forced oscillations.
# [2] = test system: Persons with SCI; assay: Bowel evacuation score by video fluoroscopy after IV bolus in thirteen subjects (Example 3); conditions: IV bolus 2 mg neostigmine alone or with 0.4 mg glycopyrrolate
# Description: as §1, §2
# This response received a 0 (zero) bowel evacuation score. FIGS. 1B-1E show progressively increasing bowel evacuation responses in different subjects. The responses in FIGS. 1B-1E correspond to bowel evacuation scores of 1+, 2+, 3+, and 4+, respectively.
# [3] = test system: Persons with SCI; assay: Airway resistance by forced oscillation technique after IV bolus (Example 3); conditions: IV bolus 2 mg neostigmine
# Description: as §1, §2
structure (smiles),measurement,setting,value
CN(C)C(=O)Oc1cccc([N+](C)(C)C)c1 [neostigmine],change in blood pressure,[1],No change
same,mean lowest heart rate measured,[1]; p=0.02,about 49 BMP
same,subjects with prompt and complete evacuation,[2],57%
same,time of evacuation post infusion (mean),[2],11 min
same,mean bowel evacuation score,"[2]; scale 0 (no evacuation) to 4+ (complete evacuation), thirteen subjects",about 2.29
same,"total airway resistance, increase over baseline",[3]; 5 Hz forced oscillations,approximately 25.5%
same,"central airway resistance, increase over baseline",[3]; 20 Hz forced oscillations,approximately 18.4%
